Reference: patent publication US9125835B2, “Synergistic combinations to reduce particle dose for targeted treatment of cancer and its metastases” (priority 2010, dated 2015)

Legend:
caspase 3/7 = settings: A549 cells, 24 hours; 1 μM paclitaxel alone or with 1 mM R-ALA
Experimental: Cell viability (FIG. 11—left) and caspase 3/7 activation (apoptosis) (FIG. 11—right) of A549 cells were evaluated in response to a low dose (˜EC5-EC20) of paclitaxel alone (1 μM), low dose paclitaxel +R-ALA (1 mM) or a solvent control (0.1% DMSO). Cell viability was determined with AlamarBlue® assay. Caspase 3/7 activation was determined as a measure of apoptosis using a fluorometric assay kit (Biovision, Mountain View, Calif.). A549 cells were treated with solvent control (0.1% DMSO), 1 μM paclitaxel, and 1 μM paclitaxel+1 mM R-ALA for 24 hours.

[1] = In vivo CPT plasma concentrations after single IV injection; settings: IV injection of free CPT (2 mg/kg)
Experimental: Values are reported as mean ±SD.
(§1) This was determined by preparing PEGylated 6 μm polystyrene MPs with three copies of the norvaline (Nva) α-amino acid prodrug of CPT. […] Anti-cancer efficacy was evaluated in an orthotopic rat lung cancer model and compared to a bolus injection of CPT.

A549 cell = test: Anti-cancer efficacy in orthotopic rat lung cancer model (A549 cell inoculation); type: in vivo, nude rats; settings: IV every 3 days for 27 days; free CPT 2 mg/kg, CPT-Nva-MPs 0.2 mg/kg CPT
Experimental: as §1
The treatment was conducted every 3 days for 27 days. The day after the last treatment, all animals were euthanized, and organs (lung, heart, […], spleen and […]) were dissected and weighed. The organs were fixed in 10% neutral buffered formalin for H & E staining.

With `CC(=O)O[C@H]1C(=O)[C@@]2(C)[C@H]([C@H](OC(=O)c3ccccc3)[C@]3(O)C[C@H](OC(=O)[C@H](O)[C@@H](NC(=O)c4ccccc4)c4ccccc4)C(C)=C1C3(C)C)[C@]1(OC(C)=O)CO[C@@H]1C[C@@H]2O` [paclitaxel] the “caspase 3/7 activation relative to controls” value (caspase 3/7) was 1.5 fold.

In the case of `CC[C@@]1(O)C(=O)OCc2c1cc1n(c2=O)Cc2cc3ccccc3nc2-1` [free CPT, camptothecin], the “systemic exposure (CPT plasma)” value [1] is reported as “high but short-lived systemic exposures” and the “areas of lung cancer versus untreated animals” value (A549 cell) is reported as “smaller areas of lung cancer”.
